Assays:
Cynomolgus monkey [1] = assay: Toxicity in cynomolgus monkey assessed as postmortem parameters measured up to 9 months; type: organism-based, Macaca fascicularis; conditions: in vivo
Cynomolgus monkey [2] = assay: Unbound clearance in cynomolgus monkey at 0.5 mg/kg, iv or 2 mg/kg, po; type: ADME, organism-based, Macaca fascicularis; conditions: in vivo
[3] = Half life in cynomolgus monkey at 0.5 mg/kg, iv or 2 mg/kg, po; type: ADME, organism-based, Macaca fascicularis; conditions: in vivo
[4] = Fraction unbound in cynomolgus monkey at 0.5 mg/kg, iv or 2 mg/kg, po; type: ADME, organism-based, Macaca fascicularis; conditions: in vivo
[5] = target: Beta-3 adrenergic receptor (Canis lupus familiaris, UniProt O02662); assay: Agonist activity at dog beta3 adrenergic receptor expressed in CHO cells assessed as accumulation of cAMP after 30 mins by TR-FRET assay; type: functional, cell-based
Cytochrome P450 1A2 = Cytochrome P450 1A2 (Homo sapiens, UniProt P05177); assay: Inhibition of CYP1A2 in human liver microsomes; type: ADME
Cytochrome P450 2B6 = Cytochrome P450 2B6 (Homo sapiens, UniProt P20813); assay: Inhibition of CYP2B6 in human liver microsomes; type: ADME
Cytochrome P450 2B6, sequence (P20813 whole entry): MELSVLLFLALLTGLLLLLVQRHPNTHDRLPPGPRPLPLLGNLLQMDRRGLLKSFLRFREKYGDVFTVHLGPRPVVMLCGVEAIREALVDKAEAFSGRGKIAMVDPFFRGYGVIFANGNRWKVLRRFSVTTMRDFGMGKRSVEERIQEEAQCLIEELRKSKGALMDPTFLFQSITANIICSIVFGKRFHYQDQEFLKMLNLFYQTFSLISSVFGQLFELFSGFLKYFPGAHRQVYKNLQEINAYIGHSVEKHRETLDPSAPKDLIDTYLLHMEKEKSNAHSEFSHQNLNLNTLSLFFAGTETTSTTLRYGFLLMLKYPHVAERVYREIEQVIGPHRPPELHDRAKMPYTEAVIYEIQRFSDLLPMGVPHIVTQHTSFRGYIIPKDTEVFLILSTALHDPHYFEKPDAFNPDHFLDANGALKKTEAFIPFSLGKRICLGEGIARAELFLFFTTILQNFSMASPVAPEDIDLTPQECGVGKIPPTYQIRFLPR

Cytochrome P450 3A4 [6] = target: T1, Cytochrome P450 3A4 (Homo sapiens, UniProt P08684); assay: Induction of CYP3A4 activity in human hepatocytes up to 10 uM; type: ADME, cell-based, Hepatocyte
T1 sequence (P08684 whole entry): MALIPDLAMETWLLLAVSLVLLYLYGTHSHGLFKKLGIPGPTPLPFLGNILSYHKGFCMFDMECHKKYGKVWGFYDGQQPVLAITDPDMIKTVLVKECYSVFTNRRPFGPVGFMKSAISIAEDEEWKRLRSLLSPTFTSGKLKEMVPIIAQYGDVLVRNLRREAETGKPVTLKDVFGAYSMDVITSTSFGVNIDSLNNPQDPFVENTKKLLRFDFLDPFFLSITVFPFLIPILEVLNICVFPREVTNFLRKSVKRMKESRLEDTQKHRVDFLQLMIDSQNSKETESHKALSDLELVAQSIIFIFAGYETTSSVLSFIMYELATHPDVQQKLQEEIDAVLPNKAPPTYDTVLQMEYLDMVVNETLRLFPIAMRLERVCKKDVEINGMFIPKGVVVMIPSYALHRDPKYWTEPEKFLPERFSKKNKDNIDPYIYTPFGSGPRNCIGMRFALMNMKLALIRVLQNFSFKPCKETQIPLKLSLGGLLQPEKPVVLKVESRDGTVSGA

[7] = target: T2, Beta-3 adrenergic receptor (Homo sapiens, UniProt P13945); assay: Agonist activity at human adrenergic beta3 receptor expressed in CHO cells assessed as accumulation of cAMP after 30 mins by TR-FRET assay in presence of 40% serum relative to (R)-(-)-isoproterenol; type: functional, cell-based
[8] = target: Beta-3 adrenergic receptor (Macaca mulatta) (UniProt Q28524); assay: Agonist activity at rhesus monkey beta3 adrenergic receptor expressed in CHO cells assessed as accumulation of cAMP after 30 mins by TR-FRET assay in presence of 40% serum relative to (R)-(-)-isoproterenol; type: functional, cell-based
Beta-3 adrenergic receptor (Macaca mulatta), sequence (Q28524 whole entry): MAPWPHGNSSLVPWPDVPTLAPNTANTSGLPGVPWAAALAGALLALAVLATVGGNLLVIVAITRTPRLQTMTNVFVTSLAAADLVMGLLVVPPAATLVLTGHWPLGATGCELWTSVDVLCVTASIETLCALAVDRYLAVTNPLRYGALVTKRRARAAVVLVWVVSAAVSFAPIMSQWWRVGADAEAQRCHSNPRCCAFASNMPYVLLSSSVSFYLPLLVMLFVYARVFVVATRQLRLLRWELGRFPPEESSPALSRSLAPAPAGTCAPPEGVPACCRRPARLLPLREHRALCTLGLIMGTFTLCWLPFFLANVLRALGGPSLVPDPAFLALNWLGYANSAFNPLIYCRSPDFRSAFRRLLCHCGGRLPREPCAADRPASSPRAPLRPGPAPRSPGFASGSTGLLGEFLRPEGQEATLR

[9] = target: Sodium-dependent serotonin transporter (Homo sapiens, UniProt P31645); assay: Inhibition of human SERT expressed in HEK293 cells preincubated for 30 mins followed by fluorescent substrate addition measured after 30 mins by plate reader analysis; type: cell-based
[10] = target: Sodium channel protein type 2 subunit alpha (Homo sapiens, UniProt Q99250); assay: Inhibition of human Nav1.2 channel expressed in Xenopus oocytes by two-intracellular microelectrode voltage clamp method; type: cell-based
Sodium channel protein type 2 subunit alpha, sequence (Q99250 whole entry, looked up): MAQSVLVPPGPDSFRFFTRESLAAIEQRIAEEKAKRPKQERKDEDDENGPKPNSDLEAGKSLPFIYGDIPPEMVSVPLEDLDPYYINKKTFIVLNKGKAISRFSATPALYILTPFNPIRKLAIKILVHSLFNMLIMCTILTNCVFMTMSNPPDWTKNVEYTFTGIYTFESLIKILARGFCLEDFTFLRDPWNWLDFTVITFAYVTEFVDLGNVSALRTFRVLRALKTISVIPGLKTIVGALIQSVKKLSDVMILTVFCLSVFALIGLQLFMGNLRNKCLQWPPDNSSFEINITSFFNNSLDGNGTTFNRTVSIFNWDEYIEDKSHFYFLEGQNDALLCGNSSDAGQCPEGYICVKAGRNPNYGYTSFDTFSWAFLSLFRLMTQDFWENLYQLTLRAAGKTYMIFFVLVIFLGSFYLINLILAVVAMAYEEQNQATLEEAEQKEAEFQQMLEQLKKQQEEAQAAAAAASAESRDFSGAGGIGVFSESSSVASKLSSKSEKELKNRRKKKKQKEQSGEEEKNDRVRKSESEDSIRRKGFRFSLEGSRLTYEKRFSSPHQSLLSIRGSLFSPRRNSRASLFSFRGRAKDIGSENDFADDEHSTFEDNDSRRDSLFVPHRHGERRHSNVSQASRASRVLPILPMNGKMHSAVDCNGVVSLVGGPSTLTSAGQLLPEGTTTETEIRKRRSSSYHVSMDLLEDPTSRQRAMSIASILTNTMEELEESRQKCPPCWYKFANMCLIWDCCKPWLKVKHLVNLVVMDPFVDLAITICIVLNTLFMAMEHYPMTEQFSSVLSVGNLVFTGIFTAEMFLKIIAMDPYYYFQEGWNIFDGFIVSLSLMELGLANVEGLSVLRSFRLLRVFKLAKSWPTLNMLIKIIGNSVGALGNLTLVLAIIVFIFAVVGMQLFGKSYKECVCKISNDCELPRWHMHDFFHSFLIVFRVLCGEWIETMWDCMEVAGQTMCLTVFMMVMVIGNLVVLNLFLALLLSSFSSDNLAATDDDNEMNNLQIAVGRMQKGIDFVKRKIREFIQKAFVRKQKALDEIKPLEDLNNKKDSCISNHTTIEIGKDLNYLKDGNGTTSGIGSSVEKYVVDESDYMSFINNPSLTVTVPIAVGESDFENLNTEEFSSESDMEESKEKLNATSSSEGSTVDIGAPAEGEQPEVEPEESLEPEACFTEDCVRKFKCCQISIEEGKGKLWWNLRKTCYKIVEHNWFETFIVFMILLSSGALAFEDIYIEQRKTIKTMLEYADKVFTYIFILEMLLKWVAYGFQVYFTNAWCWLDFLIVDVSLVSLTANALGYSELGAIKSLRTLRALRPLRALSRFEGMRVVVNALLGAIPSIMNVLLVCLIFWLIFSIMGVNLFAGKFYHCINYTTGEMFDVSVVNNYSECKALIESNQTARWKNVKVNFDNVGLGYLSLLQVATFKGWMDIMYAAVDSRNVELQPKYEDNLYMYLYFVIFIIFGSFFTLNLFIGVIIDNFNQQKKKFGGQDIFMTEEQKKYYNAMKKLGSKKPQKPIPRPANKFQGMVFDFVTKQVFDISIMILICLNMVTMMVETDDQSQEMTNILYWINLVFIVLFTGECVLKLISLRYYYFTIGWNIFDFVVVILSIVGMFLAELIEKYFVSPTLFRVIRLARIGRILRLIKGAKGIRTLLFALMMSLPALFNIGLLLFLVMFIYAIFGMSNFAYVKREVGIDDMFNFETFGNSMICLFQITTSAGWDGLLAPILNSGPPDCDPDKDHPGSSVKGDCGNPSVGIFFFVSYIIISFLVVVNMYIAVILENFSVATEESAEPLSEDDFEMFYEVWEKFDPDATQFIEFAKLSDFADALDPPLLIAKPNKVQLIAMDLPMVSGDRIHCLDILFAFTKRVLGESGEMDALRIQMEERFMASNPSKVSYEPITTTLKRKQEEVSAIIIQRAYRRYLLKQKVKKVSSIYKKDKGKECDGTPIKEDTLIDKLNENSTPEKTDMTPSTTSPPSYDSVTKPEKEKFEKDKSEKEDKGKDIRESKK

[11] = target: Voltage-gated inwardly rectifying potassium channel KCNH2 (Homo sapiens, UniProt Q12809); assay: Binding affinity to human ERG channel
Voltage-gated inwardly rectifying potassium channel KCNH2, sequence (Q12809 whole entry): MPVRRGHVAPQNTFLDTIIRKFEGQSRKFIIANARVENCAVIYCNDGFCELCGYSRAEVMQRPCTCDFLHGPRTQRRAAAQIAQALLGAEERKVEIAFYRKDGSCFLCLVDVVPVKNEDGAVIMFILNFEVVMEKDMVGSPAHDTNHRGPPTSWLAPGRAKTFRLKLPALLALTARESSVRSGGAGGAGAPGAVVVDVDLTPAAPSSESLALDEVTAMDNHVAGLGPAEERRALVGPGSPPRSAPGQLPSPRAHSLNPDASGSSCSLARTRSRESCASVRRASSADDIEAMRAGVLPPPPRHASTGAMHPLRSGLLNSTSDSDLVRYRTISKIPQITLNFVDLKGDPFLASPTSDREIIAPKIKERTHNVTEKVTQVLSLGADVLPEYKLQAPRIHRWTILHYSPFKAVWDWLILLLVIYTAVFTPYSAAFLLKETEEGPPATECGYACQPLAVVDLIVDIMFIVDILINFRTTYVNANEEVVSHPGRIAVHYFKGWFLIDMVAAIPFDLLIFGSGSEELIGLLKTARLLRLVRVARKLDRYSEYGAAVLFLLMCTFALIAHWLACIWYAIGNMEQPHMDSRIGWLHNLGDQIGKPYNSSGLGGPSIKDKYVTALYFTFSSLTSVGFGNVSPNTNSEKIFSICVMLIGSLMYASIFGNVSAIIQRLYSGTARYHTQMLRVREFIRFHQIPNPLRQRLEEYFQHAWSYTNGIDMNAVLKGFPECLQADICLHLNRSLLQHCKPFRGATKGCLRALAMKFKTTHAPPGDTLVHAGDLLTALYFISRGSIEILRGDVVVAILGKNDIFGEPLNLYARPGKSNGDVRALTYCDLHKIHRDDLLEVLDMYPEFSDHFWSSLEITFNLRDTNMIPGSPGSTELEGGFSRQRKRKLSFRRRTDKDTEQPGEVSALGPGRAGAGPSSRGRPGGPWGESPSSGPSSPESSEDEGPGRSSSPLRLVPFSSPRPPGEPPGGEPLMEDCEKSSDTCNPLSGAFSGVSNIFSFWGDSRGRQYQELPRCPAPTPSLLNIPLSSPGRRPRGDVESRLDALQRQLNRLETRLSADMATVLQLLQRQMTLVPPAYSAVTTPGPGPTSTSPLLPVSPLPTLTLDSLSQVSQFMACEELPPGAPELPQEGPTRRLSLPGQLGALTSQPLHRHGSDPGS

Cytochrome P450 3A4 [12] = target: T1, Cytochrome P450 3A4; assay: Inhibition of CYP3A4 in human liver microsomes assessed as testosterone 6beta-hydroxylation; type: ADME
Cytochrome P450 2C9 = Cytochrome P450 2C9 (Homo sapiens, UniProt P11712); assay: Inhibition of CYP2C9 in human liver microsomes assessed as diclofenac alpha'-hydroxylation; type: ADME
[13] = Plasma clearance in rat at 1 mg/kg, iv or 2 mg/kg, po; type: ADME, organism-based
[14] = Plasma clearance in dog at 0.5 mg/kg, iv or 2 mg/kg, po; type: ADME, organism-based, Canis lupus familiaris
[15] = Stability in human plasma assessed as parent compound remaining at 24 hrs by LC-MS analysis; type: ADME, cell-free; conditions: read-out: Stability
Canis familiaris [16] = assay: Unbound clearance in dog at 0.5 mg/kg, iv or 2 mg/kg, po; type: ADME, organism-based, Canis lupus familiaris; conditions: in vivo
[17] = Half life in rat at 1 mg/kg, iv or 2 mg/kg, po; type: ADME, organism-based; conditions: in vivo
Rattus norvegicus [18] = assay: Dose normalized total AUC in rat at 2 mg/kg, po; type: ADME, organism-based; conditions: in vivo
Canis familiaris [19] = assay: Dose normalized total AUC in dog at 2 mg/kg, po; type: ADME, organism-based, Canis lupus familiaris; conditions: in vivo
Rhesus monkey [20] = assay: Dose normalized total AUC in rhesus monkey at 2 mg/kg, po; type: ADME, organism-based, Macaca mulatta; conditions: in vivo
Canis familiaris [21] = assay: Dose normalized fAUC in dog at 2 mg/kg, po; type: ADME, organism-based, Canis lupus familiaris; conditions: in vivo
Rhesus monkey [22] = assay: Dose normalized fAUC in rhesus monkey at 2 mg/kg, po; type: ADME, organism-based, Macaca mulatta; conditions: in vivo
[23] = Oral bioavailability in rat at 2 mg/kg; type: ADME, organism-based; conditions: in vivo
[24] = Intrinsic clearance in rat liver microsomes; type: ADME; conditions: read-out: CLH
[25] = Intrinsic clearance in rhesus monkey liver microsomes; type: ADME, Macaca mulatta; conditions: read-out: CLH
[26] = target: T3, Beta-3 adrenergic receptor (Rattus norvegicus, UniProt P26255); assay: Agonist activity at rat beta3 adrenergic receptor expressed in CHO cells assessed as accumulation of cAMP after 30 mins by TR-FRET assay; type: functional, cell-based
T3 sequence (P26255 whole entry): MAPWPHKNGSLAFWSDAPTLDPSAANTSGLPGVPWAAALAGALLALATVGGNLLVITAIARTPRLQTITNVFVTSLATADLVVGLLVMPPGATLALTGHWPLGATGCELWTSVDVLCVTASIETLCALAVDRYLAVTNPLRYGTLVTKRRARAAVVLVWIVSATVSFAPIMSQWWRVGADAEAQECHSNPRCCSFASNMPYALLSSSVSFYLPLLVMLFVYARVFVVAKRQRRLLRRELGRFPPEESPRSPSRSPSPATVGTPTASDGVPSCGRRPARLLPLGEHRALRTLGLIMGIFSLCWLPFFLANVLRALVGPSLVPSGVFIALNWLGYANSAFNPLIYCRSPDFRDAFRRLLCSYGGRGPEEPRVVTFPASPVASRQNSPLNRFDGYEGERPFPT

[27] = target: T4, Beta-3 adrenergic receptor (Macaca mulatta, UniProt Q28524); assay: Agonist activity at rhesus monkey beta3 adrenergic receptor expressed in CHO cells assessed as accumulation of cAMP after 30 mins by TR-FRET assay; type: functional, cell-based
T4 sequence (Q28524 whole entry): as the sequence (Q28524 whole entry) above

[28] = target: T3, Beta-3 adrenergic receptor; assay: Agonist activity at rat beta3 adrenergic receptor expressed in CHO cells assessed as accumulation of cAMP after 30 mins by TR-FRET assay in presence of 40% serum; type: functional, cell-based
[29] = target: T4, Beta-3 adrenergic receptor; assay: Agonist activity at rhesus monkey beta3 adrenergic receptor expressed in CHO cells assessed as accumulation of cAMP after 30 mins by TR-FRET assay in presence of 40% serum; type: functional, cell-based
[30] = target: T2, Beta-3 adrenergic receptor; assay: Agonist activity at human adrenergic beta3 receptor expressed in CHO cells assessed as accumulation of cAMP after 30 mins by TR-FRET assay in presence of 40% serum; type: functional, cell-based
Rattus norvegicus [31] = assay: Increase in circulating glycerol level in iv infused Sprague-Dawley rat after 45 mins by liquid chromatography-tandem mass spectrometric analysis; type: functional
Rattus norvegicus [32] = assay: Increase in circulating free fatty acid level in iv infused Sprague-Dawley rat after 45 mins by liquid chromatography-tandem mass spectrometric analysis; type: functional
[33] = Drug recovery in bile duct cannulated rat urine at 5 mg/kg, iv measured over 48 hrs; type: ADME, organism-based; conditions: read-out: Drug recovery
[34] = Drug recovery in bile duct cannulated rat bile at 10 mg/kg, po measured over 48 hrs; type: ADME, organism-based; conditions: read-out: Drug recovery
[35] = Drug recovery in bile duct cannulated rat bile at 5 mg/kg, iv measured over 48 hrs; type: ADME, organism-based; conditions: read-out: Drug recovery
[36] = Drug recovery in bile duct cannulated rat feces at 5 mg/kg, iv measured over 48 hrs; type: ADME, organism-based; conditions: faeces, read-out: Drug recovery
[37] = Drug recovery in bile duct cannulated rat at 10 mg/kg, po measured over 48 hrs; type: ADME, organism-based; conditions: in vivo, read-out: Drug recovery
[38] = Drug recovery in bile duct cannulated rat at 5 mg/kg, iv measured over 48 hrs; type: ADME, organism-based; conditions: in vivo, read-out: Drug recovery
Cytochrome P450 3A4 [39] = target: T1, Cytochrome P450 3A4; assay: Time-dependent inhibition of CYP3A4 in human liver microsomes up to 50 uM; type: ADME
[40] = Solubility of the compound in fasted-simulated intestinal fluid; type: ADME; conditions: fasted-state simulated intestinal fluid
[41] = Solubility of the compound in buffer at pH <= […]; type: physicochemical
[42] = Chemical stability of the compound under forced degradation condition; type: physicochemical
MDR1 (human) = assay: Apparent permeability of the compound in pig LLC-PK1 cells expressing human MDR1 at 5 uM measured at 3 hrs by LC/MS/MS analysis; type: ADME, cell-based, Sus scrofa
Rattus norvegicus [43] = species: Rattus norvegicus; assay: Toxicity in Sprague-Dawley rat assessed as antemortem parameters measured up to 6 months; type: organism-based; conditions: in vivo
Cynomolgus monkey [44] = assay: Toxicity in cynomolgus monkey assessed as effect on electrocadiograms measured up to 9 months; type: organism-based, Macaca fascicularis; conditions: in vivo
[45] = target: Beta-2 adrenergic receptor (Homo sapiens, UniProt P07550)
Description: Displacement of [125]I-cyanopindolol from human recombinant beta2 adrenergic receptor after 1 hr by scintillation counting method

## O=C(Nc1ccc(C[C@@H]2CC[C@H]([C@H](O)c3ccccc3)N2)cc1)[C@@H]1CCc2nccc(=O)n21 [VIBEGRON]
Cynomolgus monkey [1]
  Activity: Non-toxic
Cynomolgus monkey [2]
  CL free: 34 mL/min/kg
[3]
  half-life: 7 h
[4]
  fraction unbound: 0.58
[5]
  EC50: 11 nM
Cytochrome P450 1A2
  IC50: > 100000 nM
Cytochrome P450 2B6
  IC50: > 100000 nM
Cytochrome P450 3A4 [6]
  Activity: Not Active
[7]
  max activation: 101%
[8]
  max activation: 103%
[9]
  IC50: > 10000 nM
[10]
  IC50: > 30000 nM
[11]
  IC50: > 30000 nM
Cytochrome P450 3A4 [12]
  IC50: > 100000 nM
Cytochrome P450 2C9
  IC50: > 100000 nM
[13]
  clearance: 14 mL/min/kg
[14]
  clearance: 15 mL/min/kg
[15]
  remaining at 24 h: 100%
Canis familiaris [16]
  CL free: 37 mL/min/kg
[17]
  half-life: 7 h
Rattus norvegicus [18]
  AUC/dose: 540 nM·h/mg/kg
Canis familiaris [19]
  AUC/dose: 1200 nM·h/mg/kg
Rhesus monkey [20]
  AUC/dose: 540 nM·h/mg/kg
Canis familiaris [21]
  fAUC/dose: 490 nM·h/mg/kg
Rhesus monkey [22]
  fAUC/dose: 260 nM·h/mg/kg
[23]
  bioavailability: 20%
[24]
  CLint scaled: 20 mL/min/kg
[25]
  CLint scaled: 18 mL/min/kg
[26]
  EC50: 86 nM
[27]
  EC50: 0.57 nM
[28]
  EC50: 122 nM
[29]
  EC50: 7.1 nM
[30]
  EC50: 1.6 nM
Rattus norvegicus [31]
  Activity: Dose-dependent effect
Rattus norvegicus [31]; 0.75 h, read-out: MED
  minimal effective dose: 0.3 mg/kg
Rattus norvegicus [32]
  Activity: Dose-dependent effect
Rattus norvegicus [32]; 0.75 h, read-out: MED
  minimal effective dose: 0.3 mg/kg
[33]
  dose excreted at 48 h: 37%
[34]
  dose excreted at 48 h: 36%
[35]
  dose excreted at 48 h: 33%
[36]
  dose excreted at 48 h: 13%
[37]
  dose excreted at 48 h: 87%
[38]
  dose excreted at 48 h: 83%
Cytochrome P450 3A4 [39]
  TDI: Not Active
[40]
  solubility: > 4000 µg/mL
[41]
  solubility: > 4000 µg/mL
[42]
  Stability: Stable
MDR1 (human)
  Papp at 3 h, 5 µM: 2.4 ×10⁻⁶ cm/s
Rattus norvegicus [43]
  Activity: Non-toxic
Cynomolgus monkey [44]
  Activity: Non-toxic
[45]
  IC50: > 20000 nM

Reference: ChEMBL document CHEMBL3763146 (J Med Chem, 2016)
